Residue numbers refer to the chain shown, from its start.
Tests used:
Experiment in all cases: whole-cell patch clamp, peak current dose-response
Assay type in all cases: cell-based
rat P2X4R [1] = target: T1, rat P2X4R (Rattus norvegicus, UniProt P51577, C116T/C165T)
T1 sequence (P51577 1-388 C116T/C165T): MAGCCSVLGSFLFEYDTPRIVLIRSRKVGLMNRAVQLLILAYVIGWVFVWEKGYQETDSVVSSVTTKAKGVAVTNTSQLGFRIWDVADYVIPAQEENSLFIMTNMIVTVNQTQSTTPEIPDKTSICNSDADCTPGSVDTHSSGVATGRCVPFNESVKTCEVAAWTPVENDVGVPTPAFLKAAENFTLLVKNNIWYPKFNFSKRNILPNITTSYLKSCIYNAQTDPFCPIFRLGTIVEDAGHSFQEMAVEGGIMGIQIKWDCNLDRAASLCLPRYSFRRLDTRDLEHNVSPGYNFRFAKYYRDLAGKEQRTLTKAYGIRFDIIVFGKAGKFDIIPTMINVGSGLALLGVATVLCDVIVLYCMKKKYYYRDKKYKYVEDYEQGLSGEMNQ

rat P2X4R [2] = target: T2, rat P2X4R (Rattus norvegicus, UniProt P51577, C132T/C159T)
T2 sequence (P51577 1-388 C132T/C159T): T1 sequence (P51577 1-388 C116T/C165T) with T116C, C132T, C159T, T165C

rat P2X4R [3] = target: T3, rat P2X4R (Rattus norvegicus, UniProt P51577, C217R)
T3 sequence (P51577 1-388 C217R): T1 sequence (P51577 1-388 C116T/C165T) with T116C, T165C, C217R

rat P2X4R [4] = target: T4, rat P2X4R (Rattus norvegicus, UniProt P51577, C116A)
T4 sequence (P51577 1-388 C116A): T1 sequence (P51577 1-388 C116T/C165T) with T116A, T165C

rat P2X4R [5] = target: T5, rat P2X4R (Rattus norvegicus, UniProt P51577, C217T)
T5 sequence (P51577 1-388 C217T): T1 sequence (P51577 1-388 C116T/C165T) with T116C, T165C, C217T

rat P2X4R [6] = target: T6, rat P2X4R (Rattus norvegicus, UniProt P51577, C116T)
T6 sequence (P51577 1-388 C116T): T1 sequence (P51577 1-388 C116T/C165T) with T165C

rat P2X4R [7] = target: T7, rat P2X4R (Rattus norvegicus, UniProt P51577, C132A)
T7 sequence (P51577 1-388 C132A): T1 sequence (P51577 1-388 C116T/C165T) with T116C, C132A, T165C

Nc1ncnc2c1ncn2[C@@H]1O[C@H](COP(=O)(O)OP(=O)(O)OP(=O)(O)O)[C@@H](O)[C@H]1O [ATP]
EC50 (rat P2X4R [1]): 57 ± 19 µM
EC50 (rat P2X4R [2]): 5.3 ± 0.8 µM
EC50 (rat P2X4R [3]): 9.2 ± 2.3 µM
EC50 (rat P2X4R [4]): 27 ± 6.5 µM
EC50 (rat P2X4R [5]): 7.2 ± 2.9 µM
EC50 (rat P2X4R [6]): 21 ± 4.1 µM
EC50 (rat P2X4R [7]): 14 ± 4.1 µM

From publication PMC3170524 (Physiological research / Academia Scientiarum Bohemoslovaca, 2010)
